Assay results: US20230382915A1, “GCN2 AND PERK KINASE INHIBITORS AND METHODS OF USE THEREOF” (Deciphera Pharmaceuticals, LLC, priority 2021, published 2023)

Legend:
[1] = molecular target: PERK oligomers (HEK-293 cells) (Homo sapiens (Human), UniProt Q9NZJ5); assay: Detection of PERK oligomerization using NanoBRET; format: cell-based; settings: HEK-293, 4 h, FIG. 2; read-out: stimulation of the formation of PERK oligomers EC50
Procedure: Constructs for BRET were built using the NanoBRET™ Flexi® PPI Starter System (Promega, Madison, WI). The full-length PERK ORF was obtained from Genscript (Piscataway, NJ). HEK-293 cells (catalog #CRL-1573) were obtained from the American Type Culture Collection (ATTC, Manassas, VA). Cells were grown in MEM medium supplemented with 10% heat-inactivated fetal bovine serum (Invitrogen, Carlsbad, CA) and 1% Penicillin/Streptomycin/L-Glutamine at 37° C., 5% CO2, and 95% humidity. For BRET assays, cells were seeded at a density of 40,000 cells/mL in culture medium in 6-well plates and allowed to attach and recover. Cells were transfected with C-terminally tagged PERK-NLuc and C-terminally tagged PERK-Halo using Lipofectamine LTX (Thermo, Waltham, MA) and allowed to express proteins overnight at 37° C., 5% CO2, and 95% humidity. Cells were then detached from culture dishes using 0.05% trypsin-EDTA, collected, and diluted in assay medium consisting of Opti-MEM® I Reduced Serum Medium supplemented with 4% FBS (Thermo) to 22,000 cells/mL. Cells were dispensed into 96-well cell culture plates and HaloTag® NanoBRET™ 618 Ligand (Promega) was added to a final concentration of 100 nM. […] Donor ([…]) and acceptor (618) emissions were measured on a Synergy Neo2 Multi-Mode Reader (BioTek, Winooski, VT) within 10 min of substrate addition. […]

[2] = molecular target: GCN2 kinase (Homo sapiens (Human), UniProt Q9P2K8); assay: Biochemical assay for GCN2 (TR-FRET kinase activity); settings: 1 mM ATP
Chain of GCN2 kinase (Q9P2K8 whole entry): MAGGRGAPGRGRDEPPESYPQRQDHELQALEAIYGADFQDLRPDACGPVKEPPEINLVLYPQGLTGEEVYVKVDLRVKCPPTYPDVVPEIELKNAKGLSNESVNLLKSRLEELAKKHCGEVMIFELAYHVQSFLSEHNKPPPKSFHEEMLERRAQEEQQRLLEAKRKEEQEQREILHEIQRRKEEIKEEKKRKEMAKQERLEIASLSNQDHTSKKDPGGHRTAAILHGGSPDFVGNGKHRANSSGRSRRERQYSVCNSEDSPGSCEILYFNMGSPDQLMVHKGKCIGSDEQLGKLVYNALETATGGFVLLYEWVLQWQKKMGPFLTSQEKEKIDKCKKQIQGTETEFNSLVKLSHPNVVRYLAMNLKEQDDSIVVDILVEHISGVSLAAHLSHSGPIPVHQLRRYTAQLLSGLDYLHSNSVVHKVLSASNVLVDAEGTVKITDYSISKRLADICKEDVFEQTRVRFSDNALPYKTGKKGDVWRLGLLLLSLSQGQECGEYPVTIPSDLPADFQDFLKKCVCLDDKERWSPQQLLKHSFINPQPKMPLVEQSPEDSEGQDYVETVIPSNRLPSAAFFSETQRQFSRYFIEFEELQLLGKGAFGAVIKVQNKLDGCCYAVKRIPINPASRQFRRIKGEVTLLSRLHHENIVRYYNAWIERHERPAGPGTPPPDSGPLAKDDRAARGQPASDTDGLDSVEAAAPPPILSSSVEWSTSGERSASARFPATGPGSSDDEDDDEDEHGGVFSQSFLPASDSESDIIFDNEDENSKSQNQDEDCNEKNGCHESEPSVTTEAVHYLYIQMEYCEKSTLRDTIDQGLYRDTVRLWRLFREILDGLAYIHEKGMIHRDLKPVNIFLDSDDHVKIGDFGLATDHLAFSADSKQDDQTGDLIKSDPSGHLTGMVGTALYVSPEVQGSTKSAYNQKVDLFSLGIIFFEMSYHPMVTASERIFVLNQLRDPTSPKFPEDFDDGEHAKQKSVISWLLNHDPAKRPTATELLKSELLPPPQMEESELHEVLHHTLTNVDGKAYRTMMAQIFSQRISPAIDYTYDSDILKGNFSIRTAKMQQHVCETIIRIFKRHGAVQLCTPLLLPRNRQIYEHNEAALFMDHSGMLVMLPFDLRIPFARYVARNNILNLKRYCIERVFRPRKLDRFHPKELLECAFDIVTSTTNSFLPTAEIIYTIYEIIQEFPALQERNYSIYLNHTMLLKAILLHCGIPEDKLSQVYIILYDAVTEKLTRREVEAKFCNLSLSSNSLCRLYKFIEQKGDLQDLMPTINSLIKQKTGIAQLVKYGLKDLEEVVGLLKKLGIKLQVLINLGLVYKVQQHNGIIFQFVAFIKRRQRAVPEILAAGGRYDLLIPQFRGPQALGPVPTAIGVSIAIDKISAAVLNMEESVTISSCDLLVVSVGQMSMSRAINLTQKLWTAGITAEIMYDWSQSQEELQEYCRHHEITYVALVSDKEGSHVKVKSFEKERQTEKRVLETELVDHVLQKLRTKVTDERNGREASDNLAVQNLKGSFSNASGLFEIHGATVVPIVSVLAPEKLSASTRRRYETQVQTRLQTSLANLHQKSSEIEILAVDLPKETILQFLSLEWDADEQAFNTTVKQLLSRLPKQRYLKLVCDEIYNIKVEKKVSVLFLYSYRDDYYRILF
Procedure: Activity of GCN2 kinase was determined using a TR-FRET kinase activity assay (e.g. Riddle et al. Analytical Biochemistry (2006) 356(1) 108-116). Assays were conducted in 384-well plates (13 μL assay volume) using 2 nM GCN2 (Carna Biosciences), 130 nM GFP-EIf2α (Invitrogen), 0.2 mg/mL E. coli tRNA (sigma) and 1 mM ATP in kinase buffer (Invitrogen). Inhibition of GCN2 was measured by adding serial diluted test compound (final assay concentration of 0.5% DMSO) followed by a 3-hour incubation. Tb-peIF2α (pSer52) antibody (Invitrogen) (2 nM final assay concentration) in kinase buffer containing EDTA (final assay concentration of 20 mM) was added. After a 60 min incubation at room temperature, TR-FRET was monitored using an excitation wavelength of 340 nm and emission wavelengths of 490 nm and 520 nm. The emission ratio (520/490) at each compound concentration of was converted to percent inhibition using controls (i.e., reaction with no test compound and reaction with a known inhibitor) and IC50 values were calculated by fitting a four-parameter sigmoidal curve to the data using Prism (GraphPad software).

[3] = tested on: MV-4-11 xenograft; assay: MV-4-11 xenograft efficacy model; format: in vivo, mice; settings: 14 days of dosing
Procedure: The MV-4-11 xenograft model was performed in compliance with all the laws, regulations and guidelines of the National Institutes of Health (NIH) and with the approval of the Animal Care and Use Committee of Crown Bioscience (Taicang, China), an AAALAC accredited facility. Food and water was provided ad libitum. […] Female NOD/SCID (6-9 weeks old; Vital River Laboratories Research Models and Services (Beijing, China)) were inoculated subcutaneously right front flank region with five million cells in Dulbecco's Phosphate Buffered Saline:Matrigel (1:1), using a 27-gauge needle and syringe. When tumor burdens reached 150 mm 3 on average on day 7, mice were randomly assigned into groups such that the mean tumor burden for all groups was within 10% of the overall mean tumor burden for the study population. Groups were treated on days 7-21 as follows: vehicle control (dosed orally and IP to mimic combination groups) (n=10); Compound 2 dosed orally at 50 mg/kg/day of Compound 2 (n=10); Leunase (Kyowa Kirin, Japan) dosed IP at 1000 U/kg/day (n=10); Leunase (Kyowa Kirin, Japan) dosed IP at 1000 U/kg/day (n=10) and Compound 2 dosed orally at 50 mg/kg/day of Compound 2 (n=10). Tumor volume and body weight were measured three time per week. Tumor burden (mg) was estimated from caliper measurements by the formula: tumor burden (mg=mm 3)=(length×width 2)/2.

Chain of PERK oligomers (HEK-293 cells) (Q9NZJ5 30-1116): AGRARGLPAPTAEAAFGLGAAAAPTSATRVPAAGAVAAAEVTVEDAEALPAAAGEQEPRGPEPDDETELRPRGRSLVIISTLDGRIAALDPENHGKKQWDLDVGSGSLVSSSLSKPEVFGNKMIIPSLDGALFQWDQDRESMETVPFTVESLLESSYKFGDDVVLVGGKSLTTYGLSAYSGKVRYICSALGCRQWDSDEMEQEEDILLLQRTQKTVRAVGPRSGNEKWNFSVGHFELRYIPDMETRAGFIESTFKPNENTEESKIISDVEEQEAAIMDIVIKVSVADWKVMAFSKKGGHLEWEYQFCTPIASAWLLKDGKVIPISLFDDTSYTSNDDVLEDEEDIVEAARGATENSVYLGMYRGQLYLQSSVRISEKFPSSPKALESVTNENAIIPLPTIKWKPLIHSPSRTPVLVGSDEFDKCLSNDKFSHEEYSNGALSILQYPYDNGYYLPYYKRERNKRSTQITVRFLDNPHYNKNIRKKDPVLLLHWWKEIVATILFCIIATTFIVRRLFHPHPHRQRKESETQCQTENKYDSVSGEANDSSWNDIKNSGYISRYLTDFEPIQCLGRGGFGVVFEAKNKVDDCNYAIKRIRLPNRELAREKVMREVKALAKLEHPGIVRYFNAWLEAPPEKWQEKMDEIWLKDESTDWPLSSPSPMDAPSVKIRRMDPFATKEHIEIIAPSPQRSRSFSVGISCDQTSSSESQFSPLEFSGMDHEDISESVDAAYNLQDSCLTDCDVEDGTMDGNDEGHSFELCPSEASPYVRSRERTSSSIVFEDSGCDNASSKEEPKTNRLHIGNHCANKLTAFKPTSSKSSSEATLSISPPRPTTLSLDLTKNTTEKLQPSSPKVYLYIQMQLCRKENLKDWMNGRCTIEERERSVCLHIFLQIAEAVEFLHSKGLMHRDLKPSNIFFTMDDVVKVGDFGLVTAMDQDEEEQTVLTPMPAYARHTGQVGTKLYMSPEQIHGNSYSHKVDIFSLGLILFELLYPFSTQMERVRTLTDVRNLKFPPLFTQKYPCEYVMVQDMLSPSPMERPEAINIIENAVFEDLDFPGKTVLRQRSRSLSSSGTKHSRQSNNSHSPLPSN
Chain of PERK oligomers (HEK-293 cells) (Q9NZJ5 30-1116): as above

Question: For `Cn1cc(-c2cccc(NS(=O)(=O)c3cc(Cl)cc(CO)c3Cl)c2F)c2c(N)ncnc21` [Example 2, N-(3-(4-amino-7-methyl-7H-pyrrolo[2,3-d]pyrimidin-5-yl)-2-fluorophenyl)-2,5-dichloro-3-(hydroxymethyl)benzenesulfonamide], which EC50 [1] is on record?
Answer: Its EC50 is 1.6 nM.

Question: What about the IC50 [2] of the same compound?
Answer: The IC50 was ≤ 100 nM.

Question: What about the “mean tumor growth inhibition” value ([3]; 50 mg/kg/day combined with Leunase) of the same compound?
Answer: Its value is 54%.

Question: What about the “effect on tumor growth, single agent” value ([3]; 50 mg/kg/day orally) of the same compound?
Answer: The value was “no significant effect on tumor growth”.
